In one data set the target is T1, GPR39 (Homo sapiens, UniProt O43194).
T1 sequence (O43194 1-453): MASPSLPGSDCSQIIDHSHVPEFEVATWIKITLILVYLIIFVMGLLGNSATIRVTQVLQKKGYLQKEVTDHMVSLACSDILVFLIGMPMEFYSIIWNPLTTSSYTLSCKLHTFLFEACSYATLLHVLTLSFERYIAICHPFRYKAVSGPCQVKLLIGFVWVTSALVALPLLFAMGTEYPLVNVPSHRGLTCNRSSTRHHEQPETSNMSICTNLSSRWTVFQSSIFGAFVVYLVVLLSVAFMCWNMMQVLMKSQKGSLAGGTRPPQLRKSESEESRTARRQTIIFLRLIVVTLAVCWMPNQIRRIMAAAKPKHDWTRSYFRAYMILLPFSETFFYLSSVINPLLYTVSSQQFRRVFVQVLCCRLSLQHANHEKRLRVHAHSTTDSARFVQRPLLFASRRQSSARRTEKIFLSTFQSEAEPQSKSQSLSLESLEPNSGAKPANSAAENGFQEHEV
Put plainly: luciferase assay system (SRE luciferase reporter gene, CV-1 cells expressing GPR39). Type of data set: cell-based. Set-up: expressed in transfected cells; host or cells: CV-1 fibroblast cell line (Korea Cell Line Bank), adenoviral transduction at 50 MOI. A general note: A reporter such as luciferase makes a cellular process visible.

Data set [1] addresses T2, GPR39 (G protein coupled receptor 39) (UniProt O43194 1-453, limits assumed).
T2 sequence (looked up): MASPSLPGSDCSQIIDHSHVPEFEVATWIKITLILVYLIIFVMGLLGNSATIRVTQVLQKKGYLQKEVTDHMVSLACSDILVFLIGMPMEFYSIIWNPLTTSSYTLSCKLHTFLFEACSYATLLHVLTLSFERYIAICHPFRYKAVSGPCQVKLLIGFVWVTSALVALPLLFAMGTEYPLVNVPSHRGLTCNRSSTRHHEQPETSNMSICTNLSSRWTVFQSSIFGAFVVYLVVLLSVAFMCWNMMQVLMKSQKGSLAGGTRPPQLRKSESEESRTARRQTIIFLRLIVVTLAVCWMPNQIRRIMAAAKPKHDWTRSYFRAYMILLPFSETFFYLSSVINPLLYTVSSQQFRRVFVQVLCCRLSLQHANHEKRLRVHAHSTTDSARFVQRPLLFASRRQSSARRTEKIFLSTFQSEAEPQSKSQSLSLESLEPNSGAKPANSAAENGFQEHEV
Put plainly: cell-based or functional assay.

In data set [2] the target is T2, GPR39 (G protein coupled receptor 39). Put plainly: cell-based or functional assay. This is another data set of the same source.
A further data set deals with T3, human GPR39 (human, UniProt O43194 1-453).
T3 sequence (looked up): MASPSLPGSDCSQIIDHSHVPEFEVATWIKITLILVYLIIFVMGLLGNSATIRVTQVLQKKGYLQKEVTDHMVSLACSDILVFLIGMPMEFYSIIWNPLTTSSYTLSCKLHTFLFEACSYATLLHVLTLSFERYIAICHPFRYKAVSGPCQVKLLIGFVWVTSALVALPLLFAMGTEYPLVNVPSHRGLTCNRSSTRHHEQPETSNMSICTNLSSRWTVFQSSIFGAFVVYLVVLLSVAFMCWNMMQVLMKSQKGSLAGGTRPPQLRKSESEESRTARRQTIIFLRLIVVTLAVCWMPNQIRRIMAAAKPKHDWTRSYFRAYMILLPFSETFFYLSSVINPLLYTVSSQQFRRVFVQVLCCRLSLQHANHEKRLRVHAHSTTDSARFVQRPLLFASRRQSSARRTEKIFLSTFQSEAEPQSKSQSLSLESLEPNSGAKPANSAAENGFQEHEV
In words: cell-based or functional assay.

Experimental findings from US20250340591A1, “COMPOSITION FOR PREVENTING OR TREATING INFLAMMATORY BOWEL DISEASE CONTAINING NOVEL COMPOUND” (ANYGEN CO., LTD., priority 2021, published 2025) are described below.

Square brackets hold non-standard residues; d marks the D form. Ends that are not written are not given here. Peptide text beside a SMILES is read from it. * marks the point of attachment. His(Trt) = N[C@@H](Cc1cn(C(c2ccccc2)(c2ccccc2)c2ccccc2)cn1)C(=O)O; dHis(Trt) = N[C@H](Cc1cn(C(c2ccccc2)(c2ccccc2)c2ccccc2)cn1)C(=O)O; dPhe(4-Me) = Cc1ccc(C[C@@H](N)C(=O)O)cc1; Benzhydryl = c1ccc(C(c2ccccc2)*)cc1; Lauroyl = CCCCCCCCCCCC(=O)*; Octanoyl = CCCCCCCC(=O)*; Boc = CC(C)(C)OC(=O)*

For the molecule `CCCCCCCC(=O)NCCCC[C@H](NC(=O)[C@@H](N)Cc1cn(C23CC4CC(CC(C4)C2)C3)cn1)C(=O)N[C@@H](Cc1ccccc1)C(=O)N[C@@H](Cc1ccc(O)cc1)C(=O)O` [HKFY-23, N2-(Nt-(adamantan-1-yl)-L-histidyl)-N6-octanoyl-L-lysyl-L-phenylalanyl-L-tyrosine], the “ECmax (−fold induction over basal)” value at GPR39 amounted to 15 ± 1.37 fold induction over basal. For the molecule `CCCCCCCC(=O)NCCCC[C@H](NC(=O)[C@@H](N)Cc1cn(S(=O)(=O)c2ccc(C)cc2)cn1)C(=O)N[C@H](Cc1ccc(C)cc1)C(=O)N[C@@H](Cc1ccc(O)cc1)C(=O)O` [HKFY-75, ((R)-2-((S)-2-((S)-2-amino-3-(1-tosyl-1H-imidazol-4-yl)propanamido)-6-octanamidohexanamido)-3-(p-tolyl)propanoyl)-L-tyrosine], the “ECmax (−fold induction over basal)” value on GPR39 is given as 15.9 ± 4.12 fold induction over basal. With `CCCCCCCC(=O)NCCCC[C@H](NC(=O)[C@H](Cc1c[nH]c2ccccc12)NC(=O)OC(C)(C)C)C(=O)N[C@H](Cc1ccc(C)cc1)C(=O)N[C@@H](Cc1ccc(O)cc1)C(=O)O` [HKFY-78, ((R)-2-((S)-2-((S)-2-((tert-butoxycarbonyl)amino)-3-(1H-indol-3-yl)propanamido)-6-octanamidohexanamido)-3-(p-tolyl)propanoyl)-L-tyrosine] (Boc-WK(Octanoyl)[dPhe(4-Me)]Y-OH), the “ECmax (−fold induction over basal)” value on GPR39 came to 11.4 ± 1.54 fold induction over basal. Consider `CCCCCCCC(=O)NCCCC[C@H](NC(=O)[C@H](N)Cc1cn(C(c2ccccc2)(c2ccccc2)c2ccccc2)cn1)C(=O)N[C@@H](Cc1ccccc1)C(=O)N[C@@H](Cc1ccc(O)cc1)C(=O)O` [HKFY-4, N6-octanoyl-N2-(Nt-trityl-D-histidyl)-L-lysyl-L-phenylalanyl-L-tyrosine] (H-[dHis(Trt)]K(Octanoyl)FY-OH), for which the “ECmax (−fold induction over basal)” value at GPR39 came out at 16.8 ± 1.87 fold induction over basal. Same read-out and setting: next, `CCCCCCCC(=O)NCCCC[C@H](NC(=O)[C@@H](N)Cc1cn(C(c2ccccc2)(c2ccccc2)c2ccccc2)cn1)C(=O)N[C@@H](CC(C)C)C(=O)N[C@@H](Cc1ccc(O)cc1)C(=O)O` [HKFY-51, N6-octanoyl-N2-(Nt-trityl-L-histidyl)-L-lysyl-L-leucyl-L-tyrosine] (H-[His(Trt)]K(Octanoyl)LY-OH): 14.4 ± 1.9 fold induction over basal; `CCCCCCCCCCCC(=O)NCCCC[C@H](NC(=O)[C@@H](N)Cc1cn(C(c2ccccc2)(c2ccccc2)c2ccccc2)cn1)C(=O)N[C@@H](Cc1ccccc1)C(=O)N[C@@H](Cc1ccc(O)cc1)C(=O)O` [HKFY-25, N6-dodecanoyl-N2-(Nt-trityl-L-histidyl)-L-lysyl-L-phenylalanyl-L-tyrosine] (H-[His(Trt)]K(Lauroyl)FY-OH): 7.72 ± 0.57 fold induction over basal. Same read-out and setting: the value for `CCCCCCCC(=O)NCCCC[C@H](NC(=O)[C@@H](N)Cc1c[nH]c(-c2ccccc2)n1)C(=O)N[C@H](Cc1ccc(C)cc1)C(=O)N[C@@H](Cc1ccc(O)cc1)C(=O)O` [HKFY-57, ((R)-2-((S)-2-((S)-2-amino-3-(2-phenyl-1H-imidazol-4-yl)propanamido)-6-octanamidohexanamido)-3-(p-tolyl)propanoyl)-L-tyrosine] was 8.5 ± 2.3 fold induction over basal; that for `CCCCCCCC(=O)NCCCC[C@H](NC(=O)[C@@H](N)CC1=CN(CCC2CCCCC2)CN1CCC1CCCCC1)C(=O)N[C@@H](Cc1ccccc1)C(=O)N[C@@H](Cc1ccc(O)cc1)C(=O)O` [HKFY-8, N2-((S)-2-amino-3-(1,3-bis(2-cyclohexylethyl)-2,3-dihydro-1H-imidazol-4-yl)propanoyl)-N6-octanoyl-L-lysyl-L-phenylalanyl-L-tyrosine] was 17.3±1.22 fold induction over basal. As to H(Benzhydryl)K(Octanoyl)[dPhe(4-Me)]Y [HKFY-34], in data set [1], the “EC50; SRE-luciferase reporter” value amounted to 7 nM and the “ECmax; SRE-luciferase reporter” value was 22.4 -fold induction over basal. Further, in data set [2], the “EC50; Reporter gene assay” value turned out to be 6.7 nM and the “ECmax; Reporter gene assay” value was 22.4 -fold induction over basal. Further, in the data set with human GPR39, the “EC50; Ca2+ influx assay” value came out at 2.7 nM and the “ECmax; Ca2+ influx assay” value was 2.4 -fold induction over basal.
